Data on 20 compounds can be found in publication PMC3230330 (Bioorganic & medicinal chemistry, 2011).

The IC50 is the concentration needed to halve the response being measured.

Where two headings read alike, the source gives them in different places.

Experiment [1] has as its target T1, BoNT/A LC (Clostridium botulinum, UniProt P0DPI0). In words: biochemical. It is filed as biochemical.
Another experiment concerns the target Anthrax LF (Bacillus anthracis, UniProt P15917). In words: biochemical.
Another experiment deals with human MMP-1 (Homo sapiens, UniProt P03956). It is filed as biochemical.
A further experiment addresses human MMP-2 (Homo sapiens, UniProt P08253). It is filed as biochemical.
Another experiment deals with human MMP-9 (Homo sapiens, UniProt P14780). It is filed as biochemical.
Experiment [2] has as its target T1, BoNT/A LC. It is filed as biochemical.
Experiment [3] addresses T1, BoNT/A LC. It is filed as biochemical. The source holds these as a separate data set.
A further experiment concerns BoNT/B LC. The conditions noted are these: cited from earlier work.
In experiment [4] the target is T1, BoNT/A LC. The conditions noted are these: cited from earlier work.

Anthrax LF, sequence (P15917 34-809 limits assumed): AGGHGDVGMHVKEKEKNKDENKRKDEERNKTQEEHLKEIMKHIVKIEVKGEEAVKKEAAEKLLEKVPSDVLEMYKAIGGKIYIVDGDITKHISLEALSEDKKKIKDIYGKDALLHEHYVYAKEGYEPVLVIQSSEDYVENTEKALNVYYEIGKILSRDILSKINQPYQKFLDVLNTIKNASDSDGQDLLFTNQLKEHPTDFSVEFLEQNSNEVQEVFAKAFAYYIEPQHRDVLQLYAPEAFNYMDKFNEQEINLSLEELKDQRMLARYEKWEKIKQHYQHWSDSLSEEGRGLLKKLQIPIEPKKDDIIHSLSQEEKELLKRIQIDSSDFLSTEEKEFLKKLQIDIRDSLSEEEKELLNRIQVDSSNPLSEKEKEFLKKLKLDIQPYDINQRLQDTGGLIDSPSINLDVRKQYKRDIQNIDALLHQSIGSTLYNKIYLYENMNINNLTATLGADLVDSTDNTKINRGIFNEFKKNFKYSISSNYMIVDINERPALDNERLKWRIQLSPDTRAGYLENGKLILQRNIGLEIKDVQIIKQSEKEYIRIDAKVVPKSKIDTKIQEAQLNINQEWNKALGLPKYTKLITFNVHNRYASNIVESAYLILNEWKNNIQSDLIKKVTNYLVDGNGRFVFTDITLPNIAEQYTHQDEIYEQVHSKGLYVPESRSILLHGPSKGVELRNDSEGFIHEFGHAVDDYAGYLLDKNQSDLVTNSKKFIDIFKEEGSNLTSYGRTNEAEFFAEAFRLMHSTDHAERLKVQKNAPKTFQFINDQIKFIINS
T1 sequence (P0DPI0 2-448 limits assumed): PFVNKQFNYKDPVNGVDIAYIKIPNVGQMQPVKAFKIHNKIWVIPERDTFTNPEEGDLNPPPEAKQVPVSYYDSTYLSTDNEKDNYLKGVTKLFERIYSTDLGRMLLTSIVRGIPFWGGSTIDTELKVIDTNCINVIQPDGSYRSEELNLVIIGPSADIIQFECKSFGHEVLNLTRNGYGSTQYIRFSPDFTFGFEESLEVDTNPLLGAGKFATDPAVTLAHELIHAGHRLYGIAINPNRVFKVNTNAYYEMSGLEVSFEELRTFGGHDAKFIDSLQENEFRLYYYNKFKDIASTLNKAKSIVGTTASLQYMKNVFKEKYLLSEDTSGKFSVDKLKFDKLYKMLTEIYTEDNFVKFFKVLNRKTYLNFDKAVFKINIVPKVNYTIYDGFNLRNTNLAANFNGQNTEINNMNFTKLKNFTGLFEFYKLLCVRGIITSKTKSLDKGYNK
human MMP-9, sequence (P14780 94-707): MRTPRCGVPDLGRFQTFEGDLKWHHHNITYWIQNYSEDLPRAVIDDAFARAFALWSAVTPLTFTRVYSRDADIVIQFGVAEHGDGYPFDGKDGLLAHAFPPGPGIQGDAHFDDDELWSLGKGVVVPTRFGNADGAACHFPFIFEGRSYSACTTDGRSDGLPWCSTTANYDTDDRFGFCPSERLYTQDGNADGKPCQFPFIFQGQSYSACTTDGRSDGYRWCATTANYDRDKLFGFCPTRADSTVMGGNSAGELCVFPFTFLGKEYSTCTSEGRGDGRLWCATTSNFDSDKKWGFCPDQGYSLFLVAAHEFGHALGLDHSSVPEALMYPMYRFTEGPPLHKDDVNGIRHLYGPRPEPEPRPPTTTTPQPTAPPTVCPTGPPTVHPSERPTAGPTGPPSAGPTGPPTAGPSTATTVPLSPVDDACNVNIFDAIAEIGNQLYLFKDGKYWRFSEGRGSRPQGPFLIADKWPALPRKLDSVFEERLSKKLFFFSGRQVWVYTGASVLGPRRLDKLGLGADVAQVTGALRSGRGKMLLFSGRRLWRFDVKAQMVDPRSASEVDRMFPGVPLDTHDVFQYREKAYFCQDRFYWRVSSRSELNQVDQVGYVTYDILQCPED
human MMP-1, sequence (P03956 100-469): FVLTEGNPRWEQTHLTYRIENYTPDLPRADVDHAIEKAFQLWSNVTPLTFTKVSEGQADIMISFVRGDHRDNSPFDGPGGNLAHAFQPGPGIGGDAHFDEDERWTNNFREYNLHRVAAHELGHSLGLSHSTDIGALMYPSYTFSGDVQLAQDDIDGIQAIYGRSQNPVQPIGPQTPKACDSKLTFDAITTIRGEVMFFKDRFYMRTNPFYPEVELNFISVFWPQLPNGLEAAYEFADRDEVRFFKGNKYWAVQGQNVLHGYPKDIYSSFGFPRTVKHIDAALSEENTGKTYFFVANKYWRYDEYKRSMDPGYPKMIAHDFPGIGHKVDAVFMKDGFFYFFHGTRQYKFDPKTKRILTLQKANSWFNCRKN
human MMP-2, sequence (P08253 110-660): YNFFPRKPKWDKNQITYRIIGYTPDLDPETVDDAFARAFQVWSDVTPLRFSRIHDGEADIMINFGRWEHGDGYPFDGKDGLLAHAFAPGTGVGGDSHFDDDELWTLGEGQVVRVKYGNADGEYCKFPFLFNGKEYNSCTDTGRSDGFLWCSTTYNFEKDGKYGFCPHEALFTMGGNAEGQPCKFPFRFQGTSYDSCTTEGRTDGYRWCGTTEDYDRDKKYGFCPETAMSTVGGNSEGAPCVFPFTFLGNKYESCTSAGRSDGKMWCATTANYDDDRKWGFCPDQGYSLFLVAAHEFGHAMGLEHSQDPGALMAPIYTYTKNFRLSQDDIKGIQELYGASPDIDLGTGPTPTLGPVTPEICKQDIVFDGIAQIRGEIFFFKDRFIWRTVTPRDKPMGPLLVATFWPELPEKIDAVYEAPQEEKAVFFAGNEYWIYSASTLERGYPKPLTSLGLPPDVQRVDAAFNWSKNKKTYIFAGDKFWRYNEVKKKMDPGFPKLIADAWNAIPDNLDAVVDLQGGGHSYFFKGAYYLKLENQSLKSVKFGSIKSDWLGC

Turning to “2-(1-Cyano-2-phenylvinyl)benzimidazole [Compound 8a]”, the “BoNT/A LC inhibitory potency (in words)” value at BoNT/A LC [1] is “eliminated inhibitory potency”.
On to “2-[1-Cyano-2-(2,4-dichloropyrimidin-3-yl)vinyl]-benzimidazole [Compound 10b]”, for which the half-inhibitory concentration (IC50) on Anthrax LF (read-out: Anthrax LF IC50) is above 100 µM.
Consider `COc1ccc(/C=C(\C#N)c2nc3ccccc3[nH]2)cc1I` [Compound 4], for which, at human MMP-1, the “MMP-1 IC50” value is listed as “neither compound inhibited”. Further, the “MMP-2 IC50” value at human MMP-2 is “neither compound inhibited”. Further, on human MMP-9, the “MMP-9 IC50” value is “neither compound inhibited”. At BoNT/A LC [2], the Inactivated by cysteine result was “inactivated”, the Inactivated by glutathione entry is listed as “inactivated” and the “Inactivated by zinc chelation” value is “neither are metal chelating agents”. Besides, the “manner of BoNT/A LC inhibition” value on BoNT/A LC [3] is reported as “time-dependent”. Besides, the “BoNT/B LC FRET IC50” value in the experiment on BoNT/B LC is on record as “neither 4 nor 5 inhibited”. For the same compound, the “kinetics with respect to the substrate” value on BoNT/A LC [4] is recorded as “noncompetitive”.
For `N#C/C(=C\c1ccc(-c2cccs2)s1)c1nc2ccccc2[nH]1` [Compound 5, 3-(2,2'-Bithiophen-5-yl)-2-(1H-benzo[d]imidazol-2-yl)acrylonitrile], the “MMP-1 IC50” value on human MMP-1 is recorded as “neither compound inhibited”. Also, the “MMP-2 IC50” value on human MMP-2 is listed as “neither compound inhibited”. For the same compound, at human MMP-9, the “MMP-9 IC50” value is recorded as “neither compound inhibited”. Moreover, at BoNT/A LC [2], the Inactivated by cysteine entry is “no significant, non-specific reactivity”; the Inactivated by glutathione entry is given as “no significant, non-specific reactivity”; the “Inactivated by zinc chelation” value is on record as “neither are metal chelating agents”. Also, the “manner of BoNT/A LC inhibition” value at BoNT/A LC [3] was “time-dependent”. For the same compound, the “BoNT/B LC FRET IC50” value in the experiment with BoNT/B LC was “neither 4 nor 5 inhibited”. The “kinetics with respect to the substrate” value at BoNT/A LC [4] is reported as “noncompetitive”.
Consider `COc1ccc(/C=C(\C#N)c2nc3ccccc3[nH]2)cc1OC` [Compound 8f, 2-(1H-Benzo[d]imidazol-2-yl)-3-(3,4-dimethoxyphenyl)acrylonitrile], for which the “BoNT/A LC inhibitory potency (in words)” value on BoNT/A LC [1] is “eliminated inhibitory potency”.
Same read-out and setting: as for `COc1cc(/C=C(\C#N)c2nc3ccccc3[nH]2)cc(Cl)c1O` [Compound 8g, 2-[1-Cyano-2-(3-chloro-5-methoxy-4-hydroxyphenyl)vinyl]benzimidazole], the entry is “significantly decreased or diminished activity”.
Regarding `COc1cc(C=C(C#N)c2nc3ccccc3[nH]2)cc(Br)c1O` [Compound 8h, 2-[1-Cyano-2-(3-bromo-5-methoxy-4-hydroxyphenyl)vinyl]benzimidazole], at BoNT/A LC [1], the “BoNT/A LC inhibitory potency (in words)” value is “significantly decreased or diminished activity” and the IC50 came to 94 µM. For the same compound, the IC50 against Anthrax LF is above 100 µM.
For `N#C/C(=C\c1ccc(-c2ccccc2)cc1)c1nc2ccccc2[nH]1` [Compound 8i, 2-(1H-Benzo[d]imidazol-2-yl)-3-(biphenyl-4-yl)acrylonitrile], the “BoNT/A LC inhibitory potency (in words)” value on BoNT/A LC [1] is on record as “significantly lower potency with respect to 4”.
`N#CC(=Cc1ccc(-n2ccnc2)cc1)c1nc2ccccc2[nH]1` [Compound 8j, 3-(4-(1H-Imidazol-1-yl)phenyl)-2-(1H-benzo[d]imidazol-2-yl)acrylonitrile]: at BoNT/A LC [1], the “BoNT/A LC inhibitory potency (in words)” value was “significantly lower potency with respect to 4” and inhibition was half-maximal at 73 µM (IC50). This compound also displayed an IC50 against Anthrax LF above 100 µM.
The like results for `COc1cc(C=C(C#N)c2nc3ccccc3[nH]2)cc(O)c1OC` [Compound 8k, 2-(1H-Benzo[d]imidazol-2-yl)-3-(3-hydroxy-4,5-dimethoxyphenyl)acrylonitrile] were, in that order, “significantly decreased or diminished activity”, above 100 µM and above 100 µM.
Consider `Cc1ccc(/C=C(\C#N)c2nc3ccccc3[nH]2)s1` [Compound 12a, 2-(1H-Benzo[d]imidazol-2-yl)-3-(5-methylthiophen-2-yl)acrylonitrile], for which the “BoNT/A LC inhibitory potency (in words)” value at BoNT/A LC [1] is listed as “no BoNT/A LC inhibition”.
Same read-out and setting: as for `Cc1cc(/C=C(\C#N)c2nc3ccccc3[nH]2)sc1C` [Compound 12b, 2-(1H-Benzo[d]imidazol-2-yl)-3-(4,5-dimethylthiophen-2-yl)acrylonitrile], the entry is “no BoNT/A LC inhibition”; as for `N#C/C(=C\c1cccs1)c1nc2ccccc2[nH]1` [Compound 12c, 2-(1H-Benzo[d]imidazol-2-yl)-3-(thiophen-2-yl)acrylonitrile], “no BoNT/A LC inhibition”.
Still for that read-out and setting: the same measure for `N#C/C(=C\c1ccc(-c2ccco2)s1)c1nc2ccccc2[nH]1` [Compound 12d, 2-(1H-Benzo[d]imidazol-2-yl)-3-(5-(furan-2-yl)thiophen-2-yl)acrylonitrile]: “approximately two-fold less potent than 5”; for `N#C/C(=C\c1ccc(-c2cccs2)o1)c1nc2ccccc2[nH]1` [Compound 12e, 2-(1H-Benzo[d]imidazol-2-yl)-3-(5-(thiophen-2-yl)furan-2-yl)acrylonitrile hemiacetate]: “no activity was observed”; for `N#C/C(=C\c1ccc(-c2cccs2)s1)c1cc2ccccc2[nH]1` [Compound 14a, 3-(2,2'-Bithiophen-5-yl)-2-(1H-indol-2-yl)acrylonitrile]: “eliminated inhibitory potency”.
The same measure, in the same setting: the same measure for `N#C/C(=C\c1ccc(-c2cccs2)s1)c1nc2ccccc2s1` [Compound 14b, 3-(2,2'-Bithiophen-5-yl)-2-(benzo[d]thiazol-2-yl)acrylonitrile]: “eliminated inhibitory potency”; for `N#C/C(=C\c1ccc(-c2cccs2)s1)c1nc2ccccc2o1` [Compound 14c, 3-(2,2'-Bithiophen-5-yl)-2-(benzo[d]oxazol-2-yl)acrylonitrile]: “eliminated inhibitory potency”.
As to `N#C/C(=C\c1ccc(-c2cccs2)s1)c1ccc2ccccc2n1` [Compound 14d, 3-(2,2'-Bithiophen-5-yl)-2-(quinolin-2-yl)acrylonitrile], the “BoNT/A LC inhibitory potency (in words)” value on BoNT/A LC [1] is listed as “eliminated inhibitory potency”.
On the same count and under the same terms, as for `Cn1c(/C(C#N)=C/c2ccc(-c3cccs3)s2)[n+](C)c2ccccc21.[I-]` [Compound 15, 2-(2-(2,2'-Bithiophen-5-yl)-1-cyanovinyl)-1,3-dimethyl-1H-benzo[d]imidazol-3-ium iodide], the entry is “detrimental to potency”.
